Experimental data: patent US20170052170A1, “NOVEL CELL LINES AND METHODS” (priority 2009, published 2017)

Biological target: T1, sweet taste receptor (T1R2, T1R3 endogenous) (Homo sapiens, UniProt Q7RTX0+Q8TE23)
T1 construct: endogenous in cells; host or cells: HuTu (ATCC HTB-40), H716 (ATCC CCL-251), HEK 293T (ATCC CRL-11268); some with prior UV treatment
T1 sequence (Q8TE23 20-839): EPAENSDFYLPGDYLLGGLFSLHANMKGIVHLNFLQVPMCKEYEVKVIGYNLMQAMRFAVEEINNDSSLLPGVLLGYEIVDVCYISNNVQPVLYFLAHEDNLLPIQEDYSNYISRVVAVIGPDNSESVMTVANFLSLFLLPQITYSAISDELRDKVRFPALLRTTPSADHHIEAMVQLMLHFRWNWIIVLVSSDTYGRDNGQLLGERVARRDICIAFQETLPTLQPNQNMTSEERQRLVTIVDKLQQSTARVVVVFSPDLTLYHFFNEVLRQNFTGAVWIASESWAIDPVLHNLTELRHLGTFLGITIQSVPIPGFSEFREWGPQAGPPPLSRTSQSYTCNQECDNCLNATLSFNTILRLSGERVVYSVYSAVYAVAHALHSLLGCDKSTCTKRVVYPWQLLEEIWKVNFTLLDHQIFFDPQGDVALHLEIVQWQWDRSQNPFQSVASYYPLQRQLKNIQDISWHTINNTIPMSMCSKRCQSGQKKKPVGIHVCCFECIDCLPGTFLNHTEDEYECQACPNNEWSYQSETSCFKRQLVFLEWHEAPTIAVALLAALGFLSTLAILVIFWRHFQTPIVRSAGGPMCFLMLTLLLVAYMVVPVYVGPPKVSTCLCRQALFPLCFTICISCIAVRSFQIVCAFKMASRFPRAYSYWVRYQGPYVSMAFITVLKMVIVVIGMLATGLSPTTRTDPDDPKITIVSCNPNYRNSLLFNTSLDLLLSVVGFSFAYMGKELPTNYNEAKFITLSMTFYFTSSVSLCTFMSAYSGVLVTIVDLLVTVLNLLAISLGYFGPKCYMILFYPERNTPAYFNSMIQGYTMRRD
T1 sequence (Q7RTX0 21-852): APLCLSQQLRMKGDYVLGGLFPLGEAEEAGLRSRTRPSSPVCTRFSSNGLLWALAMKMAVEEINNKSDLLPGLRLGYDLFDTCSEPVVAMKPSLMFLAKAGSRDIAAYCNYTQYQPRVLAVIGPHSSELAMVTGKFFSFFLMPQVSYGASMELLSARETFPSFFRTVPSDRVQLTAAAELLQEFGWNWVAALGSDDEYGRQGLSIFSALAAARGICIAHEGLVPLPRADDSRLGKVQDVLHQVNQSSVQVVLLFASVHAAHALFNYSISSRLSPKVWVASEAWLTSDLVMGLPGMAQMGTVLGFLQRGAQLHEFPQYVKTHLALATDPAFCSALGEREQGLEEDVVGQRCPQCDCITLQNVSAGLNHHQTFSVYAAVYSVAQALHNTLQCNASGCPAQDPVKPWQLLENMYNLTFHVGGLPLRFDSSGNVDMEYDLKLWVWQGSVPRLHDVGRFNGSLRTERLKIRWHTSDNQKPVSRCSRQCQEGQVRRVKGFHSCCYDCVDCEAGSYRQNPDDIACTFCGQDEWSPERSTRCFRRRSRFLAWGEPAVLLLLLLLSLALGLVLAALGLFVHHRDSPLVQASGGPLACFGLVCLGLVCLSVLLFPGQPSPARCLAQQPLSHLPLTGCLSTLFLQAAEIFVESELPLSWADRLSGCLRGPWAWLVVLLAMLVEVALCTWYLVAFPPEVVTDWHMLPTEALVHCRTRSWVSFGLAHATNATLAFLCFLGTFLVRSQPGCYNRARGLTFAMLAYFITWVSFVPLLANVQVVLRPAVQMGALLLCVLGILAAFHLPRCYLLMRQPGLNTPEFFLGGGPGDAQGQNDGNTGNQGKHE
Experiment: Calcium flux assay, cells endogenously expressing at least one sweet receptor subunit
Assay type: cell-based
Conditions: 15 mM fructose
Method: Populations of cells each resulting from the expansion of single isolated cells then were characterized for their ability to respond to a sweet ligand using functional cell-based assays. 15 mM fructose was used in these experiments. Depending on the cell type, different conditions were used as described below.
Forty-eight hours prior to assay, cells were seeded in growth media (L15 media (Sigma #L5520) supplemented with 10% serum (Sigma #SAC1203C), 4 mM L-Glutamine (Sigma G7513), 10 mM HEPES (Sigma H0887), and a […] of penicillin/streptomycin solution (final concentration 100 units penicillin/100 μG streptomycin per mL) (Sigma # P4458) at a high density, from 12 to 20 million cells, in 10 cm dishes. Cells were dissociated from the culture matrix and were seeded at 35,000 cells per well 24 hours prior to assay in 384 well plates. Media was removed after 18 to 24 hours. A calcium-sensitive fluorescent dye (Fluo-4, Invitrogen) diluted in sweet assay buffer (130 mM NaCl, 1.1mMKH2PO4, 1.3 mM CaCl, 20 mM HEPES and 3mMNaHPO4*7H20) was added then to each well. Cells were incubated in this media for 1 hour. Plates then were loaded on a high throughput plate reader (Hamamatsu FDSS). […] Calcium flux or assay response was detected prior to, during and following addition of sweet assay buffer containing fructose to each well for a final concentration of 15 mM fructose. […]
Alternatively, cells were dissociated from the culture matrix and were seeded at cell densities from 2,500 to 20,000 per well for 24 or 48 hours prior to assay in Eagle's Minimal Essential Media (Sigma #D5650) containing 10% FBS (Sigma #2442), 2 mM L-Glutamine (Sigma #G7513) and 1 mM Sodium Pyruvate (Sigma #S8636) or a mixture of equal parts of this media and L-15 media (Sigma, L5520) in a 384 well plate. […] Plates then were loaded on a high throughput plate reader (Hamamatsu FDSS). […] Calcium flux or assay response was detected prior to, during and following addition of sweet assay buffer containing fructose to each well for a final concentration of 15 mM fructose. […]

Measured: response in calcium flux reporter assay

O=C(CO)[C@@H](O)[C@H](O)[C@H](O)CO [fructose]
responding to fructose: 293T cells, FIG. 28C | H716 cells, FIG. 28B | HuTu cells, FIG. 28A
